Reference: publication PMC12418948, “Intranasal Administration of KCNN2 Blocking Peptide Improves Deficits in Cognitive Flexibility in Mouse Model of Fetal Alcohol Spectrum Disorders” (International Journal of Neuropsychopharmacology, 2025)
Positions of bridges follow the written chain, without caps; N, C: chain ends. Non-standard residues stand in square brackets, D forms with d. Residues, ends and D or L forms follow the SMILES beside them. Dab = NCC[C@H](N)C(=O)O

Experiments:
human KCNN2 = human KCNN2 (Homo sapiens, UniProt Q9H2S1); test: Thallium flux assay, KCNN2 channel block; type: cell-based
Chain of human KCNN2 (Q9H2S1 whole entry): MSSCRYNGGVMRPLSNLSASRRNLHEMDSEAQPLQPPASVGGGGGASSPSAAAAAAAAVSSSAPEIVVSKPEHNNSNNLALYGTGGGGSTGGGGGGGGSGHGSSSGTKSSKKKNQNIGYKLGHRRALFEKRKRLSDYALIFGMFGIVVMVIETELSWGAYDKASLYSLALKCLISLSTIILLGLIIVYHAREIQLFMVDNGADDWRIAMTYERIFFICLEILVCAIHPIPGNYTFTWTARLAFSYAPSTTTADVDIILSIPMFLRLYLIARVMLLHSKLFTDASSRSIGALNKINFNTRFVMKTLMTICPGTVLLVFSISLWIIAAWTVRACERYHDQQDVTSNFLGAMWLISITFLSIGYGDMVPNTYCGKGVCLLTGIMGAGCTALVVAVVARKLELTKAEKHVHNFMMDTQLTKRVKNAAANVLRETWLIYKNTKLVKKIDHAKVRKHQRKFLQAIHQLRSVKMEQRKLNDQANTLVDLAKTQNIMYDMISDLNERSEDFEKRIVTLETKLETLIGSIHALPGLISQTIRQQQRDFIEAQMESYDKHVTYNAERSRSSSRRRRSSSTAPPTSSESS
Experimental: The effect of tamapin and Lei-Dab7 to block the KCNN2 channel was assessed by the thallium flux (potassium ion surrogate) assay using FLIPR Potassium Assay KIT (Molecular Devices, CA) and a FLIPR TETRA fluorescence imaging plate reader (Molecular Devices, CA). Human embryonic kidney (HEK) 293 cell line stably expressing human KCNN2 (Charles River, MA) were plated on BioCoat Poly-D-Lysine 384-well Black/Clear Plates (BD Biosciences, NJ) at 15 000 to 30 000 cells per well and incubated at 37°C overnight or until cells form near confluent monolayer. A baseline fluorescence was recorded during the pre-incubation period, followed by activation in the stimulus buffer (K^+-free buffer with 5 mM Tl^+). The effects of tamapin and Lei-Dab7 on KCNN2 to inhibit KCNN2 channel were evaluated at 4 different concentrations (n = 4) each, based on fluorescence changes due to the treatments. The signal elicited by the respective positive control agonist [1 μM A23187 (Tocris, UK)] was set to 0% inhibition, and the signal in the presence of the respective positive control antagonists [3 μM UCL1684 (Tocris, UK)] was set to 100% inhibition. The IC50 values were defined as the concentration at which the percent inhibition equals 50.
To determine the dose of Lei-Dab7 to be tested, we compared the effect of Lei-Dab7 and tamapin in blocking human KCNN2 expressed in HEK293 cells using a thallium-based potassium ion channel assay. […] Based on the effective dose of tamapin in mitigating motor skill–learning deficits in PAE mice (15 μg/kg body weight via i.p.)[17] and higher brain uptake of therapeutics by intranasal delivery than by i.p. delivery, we chose a dose of 3.0 μg/kg body weight to test the effect of intranasal administration of Lei-Dab7.
Supplementary Figure 3. Concentration-response relationships of Lei-Dab7 and Tamapin on the Inhibition of KCNN2 channels. (A, B) The concentration-response relationships of Lei-Dab7 (A) and Tamapin (B) on the inhibition of KCNN2 (SK2) channels examined by the thallium flux assay are presented. […]

rat = tested on: rat; design: method as in 2 sources, one per row (each row's own in cited_ref): ref 82 = [82]; PMID 15985330; doi:10.1016/j.neulet.2005.05.050; 82. Deschaux O , Bizot JC . Apamin produces selective improvements of learning in rats . Neurosci Lett. 2005; 386 : 5 – 8 . 10.1016/j.neulet.2005.05.050 15985330 ||| ref 26, 82, 83 = [26]; PMID 18561910; doi:10.1016/j.ejphar.2008.05.019; 26. Mpari B , Sreng L , Regaya I , Mourre C . Small-conductance Ca(2+)-activated K(+) channels: heterogeneous affinity in rat brain structures and cognitive modulation by specific blockers . Eur J Pha || [82]; PMID 15985330; doi:10.1016/j.neulet.2005.05.050; 82. Deschaux O , Bizot JC . Apamin produces selective improvements of learning in rats . Neurosci Lett. 2005; 386 : 5 – 8 . 10.1016/j.neulet.2005.05.050 15985330 || [83]; PMID 9148239; doi:10.1016/s0304-3940(97)13367-5; 83. Deschaux O , Bizot JC , Goyffon M . Apamin improves learning in an object recognition task in rats . Neurosci Lett. 1997; 222 : 159 – 162 . 10.1016/s0304-3940(97)13367-5 9148239; conditions: cited from earlier work

CC[C@H](C)[C@@H]1NC(=O)[C@@H]2CSSC[C@H](NC(=O)[C@H](Cc3ccccc3)NC(=O)[C@H](C)N)C(=O)N[C@@H](CC(N)=O)C(=O)N[C@@H](CC(C)C)C(=O)N[C@@H](CCCNC(=N)N)C(=O)N[C@@H](CCN)C(=O)N[C@H]3CSSC[C@H](NC(=O)[C@H](CCCCN)NC(=O)[C@H](CC(=O)O)NC(=O)CNC1=O)C(=O)N[C@@H](CCC(=O)O)C(=O)N[C@H](C(=O)N[C@H](C(=O)N[C@@H](CCCCN)C(=O)N[C@@H](Cc1c[nH]cn1)C(N)=O)C(C)C)CSSC[C@H](NC(=O)[C@H](CO)NC(=O)[C@H](CC(C)C)NC(=O)[C@H](CCC(N)=O)NC3=O)C(=O)N[C@@H](CCCNC(=N)N)C(=O)N[C@@H](CO)C(=O)N[C@@H](CC(C)C)C(=O)NCC(=O)N[C@@H](CC(C)C)C(=O)N[C@@H](CC(C)C)C(=O)NCC(=O)N[C@@H](CCCCN)C(=O)N2 [Lei-Dab7, Leiurotoxin-1 Dab7] (H-AFCNLR[Dab]CQLSCRSLGLLGKCIGDKCECVKH-NH2; disulfide 3-21, 8-26, 12-28)
IC50 (human KCNN2; HEK293 stably expressing human KCNN2, thallium flux, FLIPR Potassium Assay Kit, FLIPR TETRA, 4 concentrations, n = 4, 0% = 1 μM A23187, 100% = 3 μM UCL1684): 720 nM
IC50 of Lei-Dab7 relative to tamapin (times higher) (human KCNN2; ratio of IC50 Lei-Dab7 to IC50 tamapin, human KCNN2 in HEK293): > 10 times
negative effects on learning in rats (rat): no negative effects
